In patent US20240287070A1, “FUSED HETEROCYCLIC DERIVATIVES” (Janssen Sciences Ireland Unlimited Company, priority 2021, published 2024):

Columns and labels:
[1] = Cytotoxicity, ATPlite Luminescence Assay; type: cell-based, human; settings: human, HepG2 or HepG2.117 cells, 3-days incubation unless marked with *
Outline: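 Compounds were added to cells and incubated 3 or 4 days. ATP content was then measured by luminescence to gauge cell viability.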

[2] = Human liver microsome stability; type: in vitro ADME; settings: 1 μM compound, NADPH 1 mM, 37° C., 0-60 min; for half-life at 1 μM: human, pooled human liver microsomes, pH 7.4, pooled human liver microsomes 0.5 mg/mL, read-out: HLM Metabolism t1/2; for HLM Metabolism t1/2: pooled human liver microsomes 0.5 mg/mL
Outline: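 Half-life came from elimination rate constant (negative slope of ln compound/internal standard area ratio over time), measured by cassette LC-MS after acetonitrile quench. Human liver microsome reactions, one replicate per compound, were initiated with NADPH (1 mM final) and sampled at six points up to 60 min.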

[3] = test system: HBV (HepG2.117 cell line, inducibly HBV producing); assay: Anti-HBV activity, intracellular HBV DNA by real-time PCR in HepG2.117 cell line; type: cell-based, hepatitis B virus; settings: HepG2.117 cells, 3 days of treatment
Outline: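 Antiviral effect is expressed through intracellular HBV DNA levels, determined by real-time PCR with a virus-specific probe. These levels were measured after 3 days of treatment with compound dilutions, in HepG2.117 cells induced to replicate HBV.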

[4] = Hepatitis B virus, HepG2.117, 72 h

| SMILES | CC50 at 3 days [1] | half-life at 1 μM [2] | EC50 [3, 4] | EC50 [3] | HLM Metabolism t1/2 [2] |
| --- | --- | --- | --- | --- | --- |
| CC(c1ccc(=O)n(C)n1)N1C[C@@H](C)n2nc3c(c2C1=O)CN(C(=O)c1ccc(Cl)c(Cl)c1)[C@H](C)C3 (single isomer, unassigned) [Compound 55A, (3R,7R)-2-(3,4-dichlorobenzoyl)-3,7-dimethyl-9-((R*)-1-(1-methyl-6-oxo-1,6-dihydropyridazin-3-yl)ethyl)-1,2,3,4,8,9-hexahydropyrido[4′,3′:3,4]pyrazolo[1,5-a]pyrazin-10(7H)-one] | > 50 µM | > 3 h | 0.051 µM | – | – |
| CC(c1ccc(C(C)(C)O)nc1)N1C[C@@H](C)n2nc3c(c2C1=O)CN(C(=O)c1cc(F)c(Cl)c(F)c1)[C@H](C)C3 (single isomer, unassigned) [Compound 60A, (3R,7R)-2-(4-chloro-3,5-difluorobenzoyl)-9-((R*)-1-(6-(2-hydroxypropan-2-yl)pyridin-3-yl)ethyl)-3,7-dimethyl-1,2,3,4,8,9-hexahydropyrido[4′,3′:3,4]pyrazolo[1,5-a]pyrazin-10(7H)-one] | > 50 µM | > 3 h | – | 0.3 µM | – |
| CN=[S@](C)(=O)c1ccc([C@@H](C)N2C[C@@H](C)n3nc4c(c3C2=O)CN(C(=O)c2ccc(Cl)c(Cl)c2)[C@H](C)C4)cn1 (relative stereo) [Compound 29A, (3R,7R)-2-(3,4-dichlorobenzoyl)-9-((R*)-1-(6-((R*)—N,S-dimethylsulfonimidoyl)pyridin-3-yl)ethyl)-3,7-dimethyl-1,2,3,4,8,9-hexahydropyrido[4′,3′:3,4]pyrazolo[1,5-a]pyrazin-10(7H)-one] | > 50 µM | 1.7 h | 0.74 µM | – | – |
| CC(c1ccc(N2CCCC2=O)cc1)N1C[C@@H](C)n2nc3c(c2C1=O)CN(C(=O)c1ccc(Cl)c(C#N)c1)[C@H](C)C3 (single isomer, unassigned) [Compound 9A, 2-Chloro-5-((3R,7R)-3,7-Dimethyl-10-oxo-9-((R*)-1-(4-(2-oxopyrrolidin-1-yl)phenyl)ethyl)-1,2,3,4,7,8,9,10-octahydropyrido[4′,3′:3,4]pyrazolo[1,5-a]pyrazine-2-carbonyl)benzonitrile] | > 50 µM | – | 0.022 µM | – | 0.84 h |
| C[C@@H]1Cc2nn3c(c2CN1C(=O)c1ccc(Cl)c(C#N)c1)C(=O)N([C@H](C)c1ccc(OC(F)F)cc1)C[C@@H]3C (relative stereo) [Compound 1A, 2-Chloro-5-((3R,7S*)-9-((R*)-1-(4-(difluoromethoxy)phenyl)ethyl)-3,7-dimethyl-10-oxo-1,2,3,4,7,8,9,10-octahydropyrido[4′,3′:3,4]pyrazolo[1,5-a]pyrazine-2-carbonyl)benzonitrile] | > 50 µM | 0.235 h | 0.21 µM | – | – |
| C[C@@H]1Cc2nn3c(c2CN1C(=O)c1ccc(Cl)c(Cl)c1)C(=O)N([C@H](C)c1ccc([S@@](C)(=N)=O)cc1)C[C@H]3C (relative stereo) [Compound 18B, (3R,7R)-2-(3,4-dichlorobenzoyl)-3,7-dimethyl-9-((R*)-1-(4-((S*)—S-methylsulfonimidoyl)phenyl)ethyl)-1,2,3,4,8,9-hexahydropyrido[4′,3′:3,4]pyrazolo[1,5-a]pyrazin-10(7H)-one] | > 50 µM | > 3 h | 0.031 µM | – | – |
| C[C@@H]1Cc2nn3c(c2CN1C(=O)c1ccc(Cl)c(C#N)c1)C(=O)N([C@@H](C)c1ccc(OC(F)F)cc1)CC3 [Ref 2, reference compound] | > 50 µM | 0.63 h | 0.03 µM | – | – |
| CC(c1ccc(S(C)(=O)=O)cc1)N1C[C@@H](C)n2nc3c(c2C1=O)CN(C(=O)c1ccc(Cl)c(Cl)c1)[C@H](C)C3 (single isomer, unassigned) [Compound 15A, (3R,7R)-2-(3,4-dichlorobenzoyl)-3,7-dimethyl-9-((R*)-1-(4-(methylsulfonyl)phenyl)ethyl)-1,2,3,4,8,9-hexahydropyrido[4′,3′:3,4]pyrazolo[1,5-a]pyrazin-10(7H)-one] | > 50 µM | > 3 h | – | 0.063 µM | – |
| CC(c1ccc(-n2cncn2)nc1)N1C[C@@H](C)n2nc3c(c2C1=O)CN(C(=O)c1ccc(Cl)c(Cl)c1)[C@H](C)C3 (single isomer, unassigned) [Compound 5A, (3R,7R)-9-((R*)-1-(6-(1H-1,2,4-Triazol-1-yl)pyridin-3-yl)ethyl)-2-(3,4-dichlorobenzoyl)-3,7-dimethyl-1,2,3,4,8,9-hexahydropyrido[4′,3′:3,4]pyrazolo[1,5-a]pyrazin-10(7H)-one] | > 50 µM | > 3 h | – | 0.087 µM | – |
| CC(c1cnc(C(C)(C)O)nc1)N1C[C@@H](C)n2nc3c(c2C1=O)CN(C(=O)c1ccc(Cl)c(C(F)(F)F)c1)[C@H](C)C3 (single isomer, unassigned) [Compound 35A, (3R,7R)-2-(4-chloro-3-(trifluoromethyl)benzoyl)-9-((R*)-1-(2-(2-hydroxypropan-2-yl)pyrimidin-5-yl)ethyl)-3,7-dimethyl-1,2,3,4,8,9-hexahydropyrido[4′,3′:3,4]pyrazolo[1,5-a]pyrazin-10(7H)-one] | > 50 µM | – | – | 0.2 µM | 0.783 h |
| CC(c1ccc(-c2ccn(C)n2)cc1)N1C[C@@H](C)n2nc3c(c2C1=O)CN(C(=O)c1ccc(Cl)c(C#N)c1)[C@H](C)C3 (single isomer, unassigned) [Compound 21A, 2-Chloro-5-((3R,7R)-3,7-dimethyl-9-((R*)-1-(4-(1-methyl-1H-pyrazol-3-yl)phenyl)ethyl)-10-oxo-1,2,3,4,7,8,9,10-octahydropyrido[4′,3′:3,4]pyrazolo[1,5-a]pyrazine-2-carbonyl)benzonitrile] | > 50 µM | – | – | 0.035 µM | 0.98 h |
| CC(C)Oc1cc(C(C)N2C[C@@H](C)n3nc4c(c3C2=O)CN(C(=O)c2ccc(Cl)c(C(F)(F)F)c2)[C@H](C)C4)ccn1 (single isomer, unassigned) [Compound 48A, (3R,7R)-2-(4-chloro-3-(trifluoromethyl)benzoyl)-9-((R*)-1-(2-isopropoxypyridin-4-yl)ethyl)-3,7-dimethyl-1,2,3,4,8,9-hexahydropyrido[4′,3′:3,4]pyrazolo [1,5-a]pyrazin-10(7H)-one] | 22.1 µM | 2.22 h | 0.052 µM | – | – |
| CC(c1ncc(C(F)(F)F)cn1)N1C[C@@H](C)n2nc3c(c2C1=O)CN(C(=O)c1ccc(Cl)c(Cl)c1)[C@H](C)C3 (single isomer, unassigned) [Compound 40A, (3R,7R)-2-(3,4-dichlorobenzoyl)-3,7-dimethyl-9-((R*)-1-(5-(trifluoromethyl)pyrimidin-2-yl)ethyl)-1,2,3,4,8,9-hexahydropyrido[4′,3′:3,4]pyrazolo[1,5-a]pyrazin-10(7H)-one] | 22 µM | > 3 h | – | 0.054 µM | – |
| CN=[S@](C)(=O)c1ccc([C@H](C)N2C[C@@H](C)n3nc4c(c3C2=O)CN(C(=O)c2ccc(Cl)c(Cl)c2)[C@H](C)C4)cn1 (relative stereo) [Compound 29C, (3R,7R)-2-(3,4-dichlorobenzoyl)-9-((S*)-1-(6-((R*)—N,S-dimethylsulfonimidoyl)pyridin-3-yl)ethyl)-3,7-dimethyl-1,2,3,4,8,9-hexahydropyrido[4′,3′:3,4]pyrazolo[1,5-a]pyrazin-10(7H)-one] | > 50 µM | 1.43 h | 0.051 µM | – | – |
| CC(c1ccccn1)N1C[C@@H](C)n2nc3c(c2C1=O)CN(C(=O)c1ccc(Cl)c(Cl)c1)[C@H](C)C3 (single isomer, unassigned) [Compound 65A, (3R,7R)-2-(3,4-dichlorobenzoyl)-3,7-dimethyl-9-((R*)-1-(pyridin-2-yl)ethyl)-1,2,3,4,8,9-hexahydropyrido[4′,3′:3,4]pyrazolo[1,5-a]pyrazin-10(7H)-one] | > 50 µM | 2.53 h | 0.034 µM | – | – |
| C[C@@H]1Cc2nn3c(c2CN1C(=O)c1ccc(Cl)c(C#N)c1)C(=O)N([C@@H](C)c1ccc(OC(F)F)cc1)C[C@@H]3C (relative stereo) [Compound 1B, 2-Chloro-5-((3R,7S*)-9-((S*)-1-(4-(difluoromethoxy)phenyl)ethyl)-3,7-dimethyl-10-oxo-1,2,3,4,7,8,9,10-octahydropyrido[4′,3′:3,4]pyrazolo[1,5-a]pyrazine-2-carbonyl)benzonitrile] | > 50 µM | 0.612 h | 1.49 µM | – | – |
| CC(c1ccc(C(C)(C)O)nc1)N1C[C@@H](C)n2nc3c(c2C1=O)CN(C(=O)c1ccc(Cl)c(C#N)c1)[C@H](C)C3 (single isomer, unassigned) [Compound 63A, 2-chloro-5-((3R,7R)-9-((R*)-1-(6-(2-hydroxypropan-2-yl)pyridin-3-yl)ethyl)-3,7-dimethyl-10-oxo-1,2,3,4,7,8,9,10-octahydropyrido[4′,3′:3,4]pyrazolo[1,5-a]pyrazine-2-carbonyl)benzonitrile] | > 50 µM | > 3 h | – | 0.38 µM | – |
